Measurements: ChEMBL document CHEMBL2396606, “Discovery of novel HCV inhibitors: synthesis and biological activity of 6-(indol-2-yl)pyridine-3-sulfonamides targeting hepatitis C virus NS4B” (Bioorg Med Chem Lett, 2013)

Columns and labels:
Format in all cases: ADME, organism-based
[1] = AUC (0 to 6 hrs) in Sprague-Dawley rat at 10 mg/kg, po; parameters: time < 6 hr, dose 10 mg/kg, route oral; conditions: plasma
[2] = Cmax in Sprague-Dawley rat at 10 mg/kg, po; parameters: dose 10 mg/kg, route oral; conditions: in vivo
[3] = Tmax in Sprague-Dawley rat at 10 mg/kg, po; parameters: dose 10 mg/kg, route oral; conditions: in vivo
[4] = Volume of distribution at steady state in Sprague-Dawley rat at 10 mg/kg, po and 5 mg/kg, iv; conditions: in vivo, read-out: Vdss
[5] = AUC (0 to infinity) in Sprague-Dawley rat at 5 mg/kg, iv; parameters: time infinity, dose 5 mg/kg, route intravenous; conditions: plasma
[6] = AUC (0 to infinity) in Sprague-Dawley rat at 10 mg/kg, po; parameters: time infinity, dose 10 mg/kg, route oral; conditions: plasma
[7] = Oral bioavailability in Sprague-Dawley rat at 10 mg/kg; conditions: in vivo

AUC(0-t) at 6 h [1] | Cmax [2] | Tmax [3] | Vd [4] | AUC(0-inf) [5] | AUC(0-inf) [6] | bioavailability [7] | SMILES
0.579 µM·h | 0.053 µg/mL | 2 h | – | – | – | – | CC(C)NS(=O)(=O)c1ccc(-c2c(C#N)c3ccc(OC(F)F)cc3n2C2CCC2)nc1
3.42 µM·h | 0.348 µg/mL | 3 h | 4.7 L/kg | 13 µM·h | 16 µM·h | 62% | N#Cc1c(-c2ccc(S(=O)(=O)NC(CF)CF)cn2)n(C2CCC2)c2cc(OC(F)F)ccc12
6.2 µM·h | 0.759 µg/mL | 2 h | – | – | – | – | N#Cc1c(-c2ccc(S(=O)(=O)NC(CF)CF)cn2)n(C2CCC2)c2cc(C3CC3)ccc12
0.964 µM·h | 0.087 µg/mL | 2 h | – | – | – | – | CC(C)NS(=O)(=O)c1ccc(-c2c(C#N)c3ccc(C4CC4)cc3n2C2CCC2)nc1
